According to US9897592B2, “Methods for identifying arthropod repellents and attractants, and compounds and compositions identified by such methods” (The Regents of the University of California, priority 2013, dated 2018):
Where a name gives a salt, the structure may show the parent alone.

What was measured:
cpA neuron [1] = test: Single-sensillum recording: activation of cpA neuron by odorants; format: cell-based, Aedes aegypti; conditions: for Activation (spikes s^−1): A. aegypti cpA, 0.5-s pulses, odorants 10^−2 in paraffin oil or water, solvent response subtracted; for Activation (spikes s−1): cpA neuron, 20 compounds from the top 200 SVM ligand predictions, negative values = inhibition, N = 4
Experimental: FIG. 3b depicts representative traces and mean responses of the A. aegypti cpA neuron to 0.5-s pulses of 138 predicted compounds screened using single-sensillum recordings, in which odorants were diluted to 10^−2 in paraffin oil or water, and responses to solvent have been subtracted, n=2-6, and error bars are s.d.
FIG. 5f is a bar graph illustrating the mean responses of the A. aegypti cpA neuron to 0.5-s pulses of 22 newly predicted compounds screened as in FIG. 3b, where salmon bars correspond to odorants found in human odor, odorants were diluted to 10^−2 in paraffin oil or water, and responses to solvent have been subtracted, and n=2-5.
Adult female A. aegypti (Linnaeus 1762) (Rockefeller strain) A. gambiae sensu stricto Giles 1902 (G3 strain), or C. quinquefasciatus Say 1823 were tested 3-12 days post-emergence with single-sensillum extracellular recordings. Chemicals were obtained from Sigma-Aldrich at the highest purity (typically >99%) and were dissolved in paraffin oil or water. […] Response to clean beads was subtracted from the results reported. Only sensilla with cpA activity of <20 spikes s^−1 to negative control were considered for analysis.
(§1) CpA-off and sham treated mosquitoes were pre-treated for 3 min in an upended 1 L glass dish in which 100 μl of fresh butyryl chloride (1%) or paraffin oil was allowed to vaporize for 10-20 min. The odor delivery system for different screens is shown in FIG. 7b; solvent responses during the same recording session were subtracted. Inhibition screen was tested. For the ultra-prolonged activator the 3-s stimulus was delivered from a 10 ml disposable pipette using a CS-55 stimulus controller (Syntech), CO2 was delivered, and responses to subsequent odor stimuli were calculated by subtracting baseline activity 1 s prior to each stimulus. When responses to repeated pulses of cyclopentanone and CO2 were compared, baseline activity between seconds 5 and 6 following each stimulus was subtracted. Spike counting was done manually or with Igor Pro6.2 (Wavemetrics) with the Neuromatic v2.00 macro (by Jason Rothman), and peak-to-peak spike amplitudes for FIG. 8 were analysed in Clampfit 10.3 (Molecular Devices).
From the large list of cpA receptor ligands predicted from Example 3 above, 138 compounds were selected based on desirable criteria for application such as smell, presence in natural sources, human safety profile, and cost to procure. These compounds were tested individually using single-sensillum electrophysiology on the cp sensillum of female A. aegypti, according to the procedure described in Example 1 above.

CO2 receptor neuron [2] = test: Amines: inhibition of CO2 receptor neuron activity; format: cell-based; design: % Inhibition: concentration or dose not given beside the values; conditions: for % Inhibition: inhibition of CO2 receptor neuron activity by amines; for Average % Inhibition: dose response
cpA neuron [3] = test: Inhibition screen: odorant overlaid on 0.15% CO2 stimulus, cpA response; format: cell-based, Aedes aegypti
Experimental: Percent inhibition was calculated by comparing mean odorant overlay responses to mean solvent overlay responses, and error bars are s.d.
as §1

CO2 receptor neuron [4] = test: Activity of CO2 receptor neuron during spermidine and spermine stimulus windows; format: cell-based; conditions: CO2 receptor neuron activity during stimulus window
Experimental: The polyamines were diluted 0.001 to 10% in paraffin oil (PO). Also shown in Table 7 are the activity values of the CO2 receptor neuron during the spermidine and spermine stimulus windows (error bars=s.e.m.).

C/C=C/C(=O)OCC [ethyl (E)-but-2-enoate]
Activation (spikes s^−1) (cpA neuron [1]): 22.0 spikes s^−1

CCOC(C)=O [ethyl acetate]
Activation (spikes s^−1) (cpA neuron [1]): 62.4 spikes s^−1

CCOC=O [ethyl formate]
Activation (spikes s^−1) (cpA neuron [1]): 34.5 spikes s^−1

O=Cc1ccoc1 [furan-3-carbaldehyde]
Activation (spikes s^−1) (cpA neuron [1]): 85.0 spikes s^−1

CCCC(O)CCC [heptan-4-ol]
Activation (spikes s^−1) (cpA neuron [1]): −3.0 spikes s^−1

C=CCCC(C)=O [hex-5-en-2-one]
Activation (spikes s^−1) (cpA neuron [1]): 63.4 spikes s^−1

CCCCCCN [hexan-1-amine]
% Inhibition (CO2 receptor neuron [2]): 86.61%

COCc1ccccc1 [methoxymethylbenzene]
Activation (spikes s^−1) (cpA neuron [1]): 12.0 spikes s^−1

C=C(C)C(=O)OC [methyl 2-methylprop-2-enoate]
Activation (spikes s^−1) (cpA neuron [1]): 45.0 spikes s^−1

COC(=O)C(C)C [methyl 2-methylpropanoate]
Activation (spikes s^−1) (cpA neuron [1]): 49.4 spikes s^−1

COC(=O)C(C)=O [methyl 2-oxopropanoate]
fold lower concentration for comparable inhibition vs previously reported inhibitors such as 1-hexanol (cpA neuron [3]): ~10 times | inhibition of cpA activity (cpA neuron [3]; overlaid on 0.15% CO2): strongly inhibited

COC(C)=O [methyl acetate]
Activation (spikes s^−1) (cpA neuron [1]): −50.5 spikes s^−1

CCCC(=O)OC [methyl butanoate]
Activation (spikes s^−1) (cpA neuron [1]): 44.5 spikes s^−1

COC=O [methyl formate]
Activation (spikes s−1) (cpA neuron [1]): 59.3 spikes s−1

CCC(=O)OC [methyl propanoate]
Activation (spikes s^−1) (cpA neuron [1]): 75.0 spikes s^−1

CC1CCCC1 [methylcyclopentane]
Activation (spikes s−1) (cpA neuron [1]): 16.3 spikes s−1

CSC [methylsulfanylmethane]
Activation (spikes s−1) (cpA neuron [1]): 99.3 spikes s−1

C=CC(CCCCC)OC(=O)CCC (stereo not drawn) [oct-1-en-3-yl butanoate]
Activation (spikes s^−1) (cpA neuron [1]): 0.0 spikes s^−1

CC(=O)OCC1CCCO1 (stereo not drawn) [oxolan-2-ylmethyl acetate]
Activation (spikes s^−1) (cpA neuron [1]): 10.0 spikes s^−1

CCCCCN [pentan-1-amine]
% Inhibition (CO2 receptor neuron [2]): 100%

CCCCCO [pentan-1-ol]
Activation (spikes s^−1) (cpA neuron [1]): 50.5 spikes s^−1

O=C1CNCCN1 [piperazin-2-one]
Activation (spikes s^−1) (cpA neuron [1]): −3.2 spikes s^−1

O=C1CCCCN1 [piperidin-2-one]
Activation (spikes s^−1) (cpA neuron [1]): 0.0 spikes s^−1

C=CCOC(=O)CCC [prop-2-enyl butanoate]
Activation (spikes s^−1) (cpA neuron [1]): 16.0 spikes s^−1

C=CCOC(=O)CC [prop-2-enyl propanoate]
Activation (spikes s^−1) (cpA neuron [1]): 49.5 spikes s^−1

CCCO [propan-1-ol]
Activation (spikes s−1) (cpA neuron [1]): 60.8 spikes s−1

CC(C)O [propan-2-ol]
Activation (spikes s−1) (cpA neuron [1]): 25.3 spikes s−1

CC(C)OC(=O)c1ccccc1 [propan-2-yl benzoate]
Activation (spikes s^−1) (cpA neuron [1]): 6.0 spikes s^−1

CC(C)OC=O [propan-2-yl formate]
Activation (spikes s−1) (cpA neuron [1]): 63.8 spikes s−1

CCC=O [propanal]
Activation (spikes s−1) (cpA neuron [1]): −33.8 spikes s−1

CCCS [propane-1-thiol]
Activation (spikes s^−1) (cpA neuron [1]): 75.0 spikes s^−1

CCCOC(C)=O [propyl acetate]
Activation (spikes s^−1) (cpA neuron [1]): 52.6 spikes s^−1

CCCOC=O [propyl formate]
Activation (spikes s^−1) (cpA neuron [1]): 58.0 spikes s^−1

c1ccnnc1 [pyridazine]
Activation (spikes s^−1) (cpA neuron [1]): 2.5 spikes s^−1

O=C1CCCN1 [pyrrolidin-2-one]
Activation (spikes s^−1) (cpA neuron [1]): 0.0 spikes s^−1

NCCCCNCCCN [spermidine]
Ave. Activity (CO2 receptor neuron [4]; 0.001% in paraffin oil): 62.3 | Ave. Activity (CO2 receptor neuron [4]; 0.01% in paraffin oil): 55.3 | Ave. Activity (CO2 receptor neuron [4]; 0.1% in paraffin oil): 10.0 | Ave. Activity (CO2 receptor neuron [4]; 1% in paraffin oil): 5.3 | Ave. Activity (CO2 receptor neuron [4]; 10% in paraffin oil): 6.0 | Average % Inhibition (CO2 receptor neuron [2]; 0.001% in paraffin oil): −1.0% | Average % Inhibition (CO2 receptor neuron [2]; 0.01% in paraffin oil): 10.6% | Average % Inhibition (CO2 receptor neuron [2]; 0.1% in paraffin oil): 85.1% | Average % Inhibition (CO2 receptor neuron [2]; 1% in paraffin oil): 92.2% | Average % Inhibition (CO2 receptor neuron [2]; 10% in paraffin oil): 91.3%

NCCCNCCCCNCCCN [spermine]
Ave. Activity (CO2 receptor neuron [4]; 0.001% in paraffin oil): 52.0 | Ave. Activity (CO2 receptor neuron [4]; 0.01% in paraffin oil): 52.3 | Ave. Activity (CO2 receptor neuron [4]; 0.1% in paraffin oil): 14.0 | Ave. Activity (CO2 receptor neuron [4]; 1% in paraffin oil): 2.7 | Ave. Activity (CO2 receptor neuron [4]; 10% in paraffin oil): 2.3 | Average % Inhibition (CO2 receptor neuron [2]; 0.001% in paraffin oil): −5.6% | Average % Inhibition (CO2 receptor neuron [2]; 0.01% in paraffin oil): −3.2% | Average % Inhibition (CO2 receptor neuron [2]; 0.1% in paraffin oil): 76.5% | Average % Inhibition (CO2 receptor neuron [2]; 1% in paraffin oil): 94.8% | Average % Inhibition (CO2 receptor neuron [2]; 10% in paraffin oil): 95.1%

Sc1cccs1 [thiophene-2-thiol]
Activation (spikes s−1) (cpA neuron [1]): −35.5 spikes s−1
